Laboratory results as given in patent US6500824B1, “Kappa (OP2) opioid receptor antagonists” (Regents of the University of Minnesota, priority 1998, dated 2002).
Marks after values point to notes of the source that are not given here.

Columns and labels:
[1] = target: T1, kappa (OP2) opioid receptor (Cavia porcellus, UniProt P41144); test: Guinea pig ileal longitudinal muscle (GPI) smooth muscle assay, antagonism of ethylketazocine (EKC); format: cell-based; conditions: for Kb: antagonist concentration 100 nM, read-out: Antagonist Potency Ke κ(OP2) EKC
T1 construct: a strip of longitudinal muscle with the myenteric plexus attached was prepared; from tissue; host or cells: guinea pig ileal longitudinal muscle with myenteric plexus
Description: (§1) 1. Guinea Pig Ileal Longitudinal Muscle (GPI). Ilea from guinea pigs were taken approximately 10 cm from the ileocecal junction, and a strip of longitudinal muscle with the myenteric plexus attached was prepared by the method of H. B. Rang et al., Brit. J Pharmacol., 1964, 22, 356. A 1 cm portion of this strip was then mounted between two platinum electrodes placed in a 10 ml organ bath and connected to an isometric transducer, contractions were recorded on a polygraph. Contractions of the ileal strip were initiated by supramaximal rectangular pulses in all preparations (80 V of 0.5 ms duration at a frequency of 0.1 Hz). Krebs bicarbonate solution containing […] chloropheniramine maleate was the bathing solution and was continuously bubbled with 95% O2 and 5% CO2. The organ bath was maintained at 36-37° C. The longitudinal strip was allowed to equilibrate with continuous stimulation for a minimum of 90 min. Cumulative concentration-response curves were determined after drugs were added to the bath in preselected amounts and washed out with buffer after noting their maximum effects.
(§2) The standard agonists employed were [D-Ala^2, D-Leu^5]enkephalin (DADLE) (D), morphine (M) and ethylketazocine (EKC); these are selective for delta (D), mu (M) and kappa (EKC) opioid receptors, respectively. Concentration-response curves were obtained in the absence (control) and the presence of the antagonist and were determined as IC50 values. The IC50 ratio represents the IC50 in the presence of the antagonist divided by the control IC50 value in the same tissue. A concentration independent value of antagonist potency is calculated from the equation, Ke=[antagonist]/(IC50 ratio-1).

[2] = tested on: μ(OP3) opioid receptor; test: Guinea pig ileal longitudinal muscle (GPI) smooth muscle assay, antagonism of morphine; format: cell-based; conditions: agonist morphine, antagonist concentration 100 nM
Description: as §1, §2

[3] = target: T2, δ(OP1) opioid receptor (Mus musculus, UniProt P32300); test: Mouse vas deferens (MVD) smooth muscle assay, antagonism of DADLE; format: cell-based
T2 construct: Both vasa deferentia were dissected out of mice and mounted singly; from tissue; host or cells: mouse vas deferens
Description: 2. Mouse Vas Deferens (MvD). This assay was performed according to the description by G. Henderson et al., Brit. J. Pharmacol., 1972, 46,764. Both vasa deferentia were dissected out of mice and mounted singly through two platinum electrodes in a 10 ml organ bath. The bath contained Krebs bicarbonate solution that was continuously bubbled with 95% O2 and 5% CO2. The organ bath was maintained at 37° C. The tissue was attached to an isometric transducer and stimulated transmurally with rectangular pulses ([…], 1 ms duration, supramaximal voltage). Drugs were added cumulatively to the bath in preselected amounts and washed out after noting their maximum effects.
as §2

[4] = target: T3, mu opioid receptor (Mus musculus, UniProt P42866); test: Mouse tail flick assay, antagonism of morphine (μ) by ICV antagonist; format: in vivo; conditions: antagonist ICV 50 pmol, agonist morphine
T3 construct: from tissue; host or cells: living mouse (ICV dosing)

[5] = target: T4, delta opioid receptor (Mus musculus, UniProt P32300); test: Mouse tail flick assay, antagonism of DSLET (δ) by ICV antagonist; format: in vivo; conditions: antagonist ICV 50 pmol, agonist DSLET
T4 construct: from tissue; host or cells: living mouse (ICV dosing)

[6] = target: T5, kappa opioid receptor (Cavia porcellus, UniProt P41144); test: GPI preparation, kappa antagonist potency against U-50488H; format: cell-based, guinea pig
T5 construct: a strip of longitudinal muscle with the myenteric plexus attached was prepared; from tissue; host or cells: guinea pig ileal longitudinal muscle with myenteric plexus
Description: as §1

[7] = target: T6, wt κ receptor (Rattus norvegicus, UniProt P34975); test: Competition binding with [3H]diprenorphine, whole cell binding, COS-7 cells, wt κ
T6 construct: expressed in transfected cells; host or cells: COS-7 (per the earlier reading)
Text: (§3) The effects of mutational exchange of Glu297 in the κ receptor and Lys303 in the μ receptor on the binding affinity of representative compounds of the invention were examined using techniques known in the art.

[8] = target: T7, κ[E297K] receptor (Rattus norvegicus, UniProt P34975, E297K); test: Competition binding with [3H]diprenorphine, whole cell binding, COS-7 cells, κ[E297K]
T7 construct: expressed in transfected cells; host or cells: COS-7 (per the earlier reading)
Text: as §3

[9] = target: T8, wt μ receptor (Rattus norvegicus, UniProt P33535); test: Competition binding with [3H]diprenorphine, whole cell binding, COS-7 cells, wt μ; conditions: [3H]diprenorphine competition; COS-7 whole cell binding; read-out: Ki ± SEM, wt μ
T8 construct: expressed in transfected cells; host or cells: COS-7 (per the earlier reading)
Text: as §3

[10] = tested on: wt μ receptor; test: as above; design: species or system rat; conditions: wt μ
Text: as §3

[11] = target: T9, μ[K303E] receptor (Rattus norvegicus, UniProt P33535, K303E); test: Competition binding with [3H]diprenorphine, whole cell binding, COS-7 cells, μ[K303E]
T9 construct: expressed in transfected cells; host or cells: COS-7 (per the earlier reading)
Text: as §3

[12] = Butorphanol-induced feeding; format: in vivo; conditions: FIG. 3
Text: (§4) The ability of a compound to decrease butorphanol-, DAMGO-, U50,488-, 24-hour deprivation-, and Neuropeptide Y-induced feeding can be determined using models known in the art. See for example, A. S. Levine et al., Brain Research, 1998, 534, 60-64; and D. C. Jewett, et al., 1998, Society for Neuroscience Abstracts, 1, Abstract #276.10, 705.

[13] = DAMGO-induced feeding; format: in vivo; conditions: FIG. 4
Text: as §4

[14] = U50,488-induced feeding; format: in vivo; conditions: FIG. 5
Text: as §4

[15] = 24-hour deprivation-induced feeding; format: in vivo; conditions: FIG. 6
Text: as §4

[16] = Neuropeptide Y-induced feeding; format: in vivo; conditions: FIG. 7
Text: as §4

[17] = target: T10, kappa opioid receptor (Mus musculus, UniProt P33534); test: Mouse abdominal stretch assay, antagonism of U-50488H antinociception by SC antagonist; format: in vivo; design: from tissue; host or cells: living mouse (SC dosing)
[18] = target: T10, kappa opioid receptor; test: Mouse tail flick assay, antagonism of U-50488H (κ) by ICV antagonist; format: in vivo; design: from tissue; host or cells: living mouse (ICV or SC dosing)
[19] = in vitro smooth muscle Ke, relative to nor-BNI

N=C(N)Nc1ccc2[nH]c3c(c2c1)C[C@@]1(O)[C@H]2Cc4ccc(O)c5c4[C@@]1(CCN2CC1CC1)[C@H]3O5.O.O.O=C(O)C(F)(F)F.O=C(O)C(F)(F)F [Compound 15, 5′-Guanidinyl-17-cyclopropylmethyl-6,7-didehydro-4,5-α-epoxy-3.14-dihydroxyindolo[2′,3′:6,7]morphinan Ditrifluoroacetate Dihydrate]
Antagonist Potency Ke κ(OP2) EKC ([1]; GPI, agonist EKC, antagonist concentration 20 nM (*)): 0.144* nM
selectivity ratio κ/δ, fold greater than that of nor-BNI [1, 19]: 42 fold
selectivity ratio κ/μ, fold greater than that of nor-BNI [1, 19]: 9 fold
kappa opioid receptor selectivity (in words) ([1]; in vitro, versus morphine and DADLE antagonism, Ditrifluoroacetate Dihydrate): potent and highly selective
Antagonist Potency Ke μ(OP3) Morphine [2]: 30.00 nM
Antagonist Potency Ke δ(OP1) DADLE ([3]; agonist DADLE, antagonist concentration 100 nM): 115 nM
delta antagonist activity of NTI associated with the compound (in words) ([3]; in vitro): little, if any
ED50 Ratio (limits), Morphine (μ) [4]: 0.8 (0.5-1.2)
ED50 Ratio (limits), DSLET (δ) [5]: 1.4 (1.0-2.2)
Kb ([6]; GPI, agonist U-50488H, read-out: Ke): 0.041 nM
potency relative to nor-BNI, antagonism of U-50488H ([6]; GPI, agonist U-50488H, relative to nor-BNI): 5 fold
Selectivity Ratio κ/δ ([6]; δ agonist [D-Ala2, D-Leu5]enkephalin, κ agonist U-50488H): 2797
Selectivity Ratio κ/μ ([6]; μ agonist morphine, κ agonist U-50488H): 728
Ki ([7]; [3H]diprenorphine competition, COS-7 whole cell binding, read-out: Ki ± SEM, wt κ): 0.09 ± 0.01 nM
Fana = Ki(analog)/Ki(nor-BNI on the wt κ receptor) ([7]; wt κ): 0.75
Ki ([8]; [3H]diprenorphine competition, COS-7 whole cell binding, read-out: Ki ± SEM, κ[E297K]): 12.9 ± 0.48 nM
Fmut = mutational factor, Ki(mutant receptor)/Ki(wt κ receptor) ([8]; κ[E297K]): 143
Ki [9]: 9.23 ± 1.39 nM
Fmut = mutational factor, Ki(mutant receptor)/Ki(wt κ receptor) [10]: 103
Ki ([11]; [3H]diprenorphine competition, COS-7 whole cell binding, read-out: Ki ± SEM, μ[K303E]): 0.06 ± 0.02 nM
Fmut = mutational factor, Ki(mutant receptor)/Ki(wt κ receptor) ([11]; μ[K303E]): 0.67
effect on Butorphanol-induced feeding [12]: does not decreases
effect on DAMGO-induced feeding [13]: decreases
effect on U50,488-induced feeding [14]: decreases
effect on 24-hour deprivation-induced feeding [15]: decreases
effect on Neuropeptide Y-induced feeding [16]: does not decreases
potency relative to nor-BNI, SC-administered ([17]; SC, relative to nor-BNI): greater than 50 times
ED50 Ratio (limits), U-50488H antinociception ([17]; antagonist SC 0.05 μmol kg−1, U-50488H SC): 3.0 (1.9-5.0)
ED50 Ratio (limits), U-50488H antinociception ([17]; antagonist SC 2.0 μmol kg−1, U-50488H SC): 3.8 (2.5-6.3)
in vivo kappa selectivity (in words) ([18]; in vivo studies, Tables 2 and 3): selective κ-antagonist
ED50 Ratio (limits), U-50488H (κ) ([18]; mouse tail flick, antagonist ICV 50 pmol, agonist U-50488H): 4.5 (3.4-6.3)

CCNC(=N)Nc1ccc2[nH]c3c(c2c1)C[C@@]1(O)[C@H]2Cc4ccc(O)c5c4[C@@]1(CCN2CC1CC1)[C@H]3O5.O.O.O=C(O)C(F)(F)F.O=C(O)C(F)(F)F [Compound 16, 5′-N-Ethylguanidinyl-17-cyclopropylmethyl-6,7-didehydro-4,5-α-epoxy-3,14-dihydroxyindolo[2′,3′:6,7]morphinan Ditrifluoroacetate Dihydrate]
Kb ([1]; GPI, agonist EKC): 0.157 nM
Antagonist Potency Ke μ(OP3) Morphine [2]: 19.00 nM

CCCCNC(=N)Nc1ccc2[nH]c3c(c2c1)C[C@@]1(O)[C@H]2Cc4ccc(O)c5c4[C@@]1(CCN2CC1CC1)[C@H]3O5.O.O.O=C(O)C(F)(F)F.O=C(O)C(F)(F)F [Compound 17, 5′-N-Butylguanidinyl-17-cyclopropylmethyl-6,7-didehydro4,5α-epoxy-3,14-dihydroxyindolo[2′,3′:6,7]morphinan Ditrifluoroacetate Dihydrate]
Kb ([1]; GPI, agonist EKC): 0.09 nM

CNC(=N)Nc1ccc2[nH]c3c(c2c1)C[C@@]1(O)[C@H]2Cc4ccc(O)c5c4[C@@]1(CCN2CC1CC1)[C@H]3O5.O.O.O=C(O)C(F)(F)F.O=C(O)C(F)(F)F [Compound 18, 5′-Methylguanidinyl-17-cyclopropylmethyl-6,7-didehydro4,5α-epoxy-3,14-dihydroxyindolo[2′,3′:6,7]morphinan Ditrifluoroacetate Dihydrate]
Kb ([1]; GPI, agonist EKC): 0.59 nM
Antagonist Potency Ke μ(OP3) Morphine [2]: 10.8 nM
